Source: patent US20050058600A1, “3,3'-Diindolylmethane antiandrogenic compositions” (priority 2003, published 2005)

What was measured:
[1] = system: BP-induced pulmonary adenomas; conditions: mice; cited from earlier work
[2] = system: prostate cancer cells; conditions: cited from earlier work
[3] = system: dimethylbenzanthracene (DMBA)-induced mammary tumors; conditions: rats; cited from earlier work
[4] = system: breast cancer cells; conditions: in culture; cited from earlier work
[5] = system: benzo(a)pyrene (BP)-induced tumors of the forestomach; conditions: mice; cited from earlier work
[6] = system: skin surrounding the flank organ of the male Syrian hamster; test: Androgen-induced delay of hair growth in the Golden Syrian hamster; assay type: in vivo
Method: Mature male golden Syrian hamsters, 101-110 g, are obtained from Charles River Laboratories (Wilmington, Mass.). Pellet implant and blood drawing procedures are performed while animals are under general anaesthesia induced by isoflurane (Aerrane®, Fort Dodge Animal Health, Overland Park, Kans.). Testosterone propionate (TP) is administered in the form of 25 mg dose time-release pellets (Inovative Research of America, Toledo, Ohio). Antiandrogenic DIM derivatives (Example II, supra) are coadministered in parallel 25 mg dose time-release pellets. Control animals receive placebo pellets, which contain only carrier/binder excipients (cholesterol, lactose, celluloses, phosphates, and stearates).
Pellets are implanted subcutaneously. A skin incision is made with scissors on the upper dorsal side of the animal, equal in length to the pellet. A horizontal pocket is created with forceps about 2 cm beyond the incision site. Pellets are placed in the pocket with forceps, and incisions are then closed with a staple suture (Autoclip®, 9 mm, Stoelting Co., Wood Dale, Ill.). Immediately after pellet implantation, the fur on and around each flank organ is shaved with electric clippers. This is designated day 0 of the study. At day 7, the fur around the flank organ is re-clipped. […] On day 21 the surface diameters of the left and right flank organs (encompassed within the pigmented area) are measured with vernier callipers. […]
Sebaceous glands are evaluated in unstained whole mounts of ventral dermal sheets from the left ears. […] The gland areas are measured using an Optomax V image analysis system (Optomax, Hollis, N.H.). The percentage change in sebaceous gland size is calculated by comparing the testosterone-treated group with the placebo-treated group. Serum testosterone is measured by radioimmunoassay at an outside laboratory (AniLytics, Inc., Gaithersburg, Md.).
Hair growth is quantified using a visual grading system (0-3 scale, where 0=no growth, 3=full hair growth). […]

Q: What does the source list for `OCc1c[nH]c2ccccc12` [I3C, indole-3-carbinol, reference compound]?
A: incidence of BP-induced pulmonary adenomas [1]: reduced the incidence; proliferation of prostate cancer cells [2]: inhibit proliferation; incidence of DMBA-induced mammary tumors [3]: reduced the incidence; proliferation of breast cancer cells [4]: inhibit proliferation; incidence of BP-induced tumors of the forestomach [5]: reduced the incidence

Q: Which results are given for `CCC(=O)O[C@H]1CC[C@H]2[C@@H]3CCC4=CC(=O)CC[C@]4(C)[C@H]3CC[C@]12C` [TP, Testosterone propionate]?
A: size of the flank organ and the ear sebaceous glands ([6]; 25 mg TP dose, after 21 days): marked increase; hair growth grade (0-3 scale) ([6]; TP alone, day 14): 0; hair growth ([6]; TP alone, day 21): insignificant
